According to patent publication US20200155609A1, “COMPOSITIONS AND METHODS OF MAKING EXPANDED HEMATOPOIETIC STEM CELLS USING PTEN INHIBITORS” (Transfusion Health LLC, priority 2017, published 2020):

Legend:
[1] = system: Primary human CD34+ cells isolated from mobilized peripheral blood; assay: Relative expansive effect (relative cell number), mobilized peripheral blood CD34+ cells in StemSpan SFEM (Example 23); format: cell-based
Method: Mobilized peripheral blood was purchased from StemCell Technologies. The blood was mobilized using G-CSF from volunteer donors. Volunteers were administered a maximum of 10 ug/kg/day of granulocyte colony-stimulating factor (G-CSF) for 3-5 days prior to collection. Primary human CD34+ cells were isolated from mobilized peripheral blood leukapheresis samples using positive immunomagnetic separation techniques.
Isolated CD34+ cells were incubated in an in vitro culture media of StemSpan SFEM. When testing the substituted derivatives of 9,10-dihydrophenathrene (+Derivative conditions), two internal controls were used: a positive control (+SF conditions) and a baseline control (i.e, basic conditions (“cytokines only”)). The media components and concentrations used for the compounds tested are described in Table 8, above. The culture also included an antibiotic solution that includes penicillin, streptomycin, and amphotericin B to avoid contamination. Controls were included because the amount of expansion in samples obtained varies from individual to individual.
Cultures were incubated at 3% oxygen (controlled by nitrogen) and 5% CO2. […]
Table 10, below, summarizes the relative expansive effect of Compound 1.013 at the indicated concentration. […] Relative cell number is calculated as described in Example 22.

[2] = system: CD34+ cells isolated from donor non-mobilized peripheral blood; assay: Titration of SF1670 on CD34+ cells from non-mobilized peripheral blood, flow cytometry (Example 20); format: cell-based, human
Description: CD34+ cells were isolated from donor peripheral blood. Standard ficoll paque layering was used to separate the buffy coat. Cells then undergo negative depletion using biotinylated CD2, CD3, CD4, CD5, CD8, CD1 Ib, CD14, CD16, CD19, CD20, CD45RA, CD56, CD235 (in some examples CD15, CD25 and other lineage specific antibodies may also be used). Cells which bind these antibodies are depleted using streptavidin beads. The depleted cell pool was sorted for CD34+ cells before being placed in cell culture.
(§1) Isolated CD34+ cells were incubated in an in vitro culture media of Alpha MEM without phenol red, 10% (v/v) heat inactivated fetal bovine serum (FBS) and +SF conditions. +SF conditions included the components described in Table 5. The culture also included an antibiotic solution that includes penicillin, streptomycin, and amphotericin B to avoid contamination.
(§2) Cultures were incubated at 3% oxygen (controlled by nitrogen) and 5% CO2.
(§3) Small molecule components were added separately and fresh each time the media needs to be refreshed. Cytokines can be stored together. Media renewal should occur at least every few days.
(§4) On the days indicated one-half of the volume of the cell culture was removed for data analysis (flow cytometry using a BD FACS ARIA II). The culture volume was replenished with fresh media according to the conditions tested. The data reported accounts for the dilution factor introduced in this procedure.

[3] = system: CD34+ cells isolated from donor non-mobilized peripheral blood (hematopoietic stem cells); assay: Culture of CD34+ cells from non-mobilized peripheral blood with SF1670 or SF1670 and ER50891, flow cytometry (Example 17); format: cell-based, human; details: after 7 days in culture, SF1670 250 nM (ER50891 100 nM), compared with Base conditions
Method: CD34+ cells were isolated from donor peripheral blood. Whole blood was centrifuged at 1750×g (the speed of centriguation may vary) for 20 minutes. Plasma was drawn off using a pipette or syringe. Concentrated red blood cell (RBC) layer was drawn off with a pipette or syringe. Residual RBCs were lysed using standard RBC lysis protocols. White blood cell (WBC) layer was washed in PBS and spun down several times at 300 g for 7 minutes to remove platelets and some debris. Cells were pelleted and incubated with unlabeled CD64 antibody. Cells then undergo negative depletion using biotinylated CD2, CD3, CD4, CD5, CD8, CD11b, CD14, CD16, CD19, CD20, CD45RA, CD56, CD235 (in some examples CD15, CD25 and other lineage specific antibodies may also be used). Cells which bind these antibodies are depleted using streptavidin beads. The resultant progenitor enriched cell pool were cultured directly (residual mature cells and late progenitors will be killed off over time in culture) or cell pool can undergo a CD34 or CD133 positive selection to further enrich for the desired cells before culturing.
as §1, with “(FBS). Base Conditions, +SF Conditions,” for “(FBS)”, “+SF/+ER” for “+SF conditions. +SF”, “conditions further” for “conditions”, “2. Each condition tested” for “5. The culture”
as §2, §3, §4

[4] = system: hematopoietic stem cells derived from cord blood; assay: Culture of cord blood with SF1670, flow cytometry (Example 19); format: cell-based, human
Method: A frozen cord blood sample was thawed and gradually brought to room temperature. Thawed cord blood was incubated in an in vitro culture media of Alpha MEM without phenol red, 10% (v/v) heat inactivated fetal bovine serum (FBS). Base Conditions and +SF Conditions further included the components described in Table 4. Each condition tested also included an antibiotic solution that includes penicillin, streptomycin, and amphotericin B to avoid contamination.
as §2, §3, §4

Row | SMILES | CD133 effect (relative expansive effect, relative cell number) ([1]; 7 days in culture, 1 μM sample compound, mobilized peripheral blood, StemSpan SFEM) | expansive effect on HSCs in culture ([1]; number of cells per well after 7 days, FIG. 18) | expansive effect on the enhancement of hematopoietic stem cells over the control condition (0 nM SF1670) ([2]; SF1670 125 nM, 250 nM and 500 nM, FIG. 5B-5E) | expansion of any cell type (total cells) ([2]; SF1670 1000 nM, FIG. 5A) | expansive effect ([2]; SF1670 1000 nM, days 4 and 7, FIG. 5A-5E) | number of CD34+ cells ([3]; FIG. 1A) | number of CD133+ cells ([3]; FIG. 1B) | number of CD90+ cells ([3]; FIG. 1C) | total number of CD34+ cells ([4]; +SF conditions (SF1670 500 nM) vs Base conditions, FIG. 3B) | total number of CD133+ cells ([4]; +SF conditions (SF1670 500 nM) vs Base conditions, FIG. 3C) | total number of CD90+ cells ([4]; +SF conditions (SF1670 500 nM) vs Base conditions, FIG. 3D) | total number of CD38− cells ([4]; +SF conditions (SF1670 500 nM) vs Base conditions, FIG. 3E) | fold increase in CD34+ cells from day 2 ([4]; SF1670 500 nM, after 16 days in culture, FIG. 4B) | fold increase in CD133+ cells from day 2 ([4]; SF1670 500 nM, after 16 days in culture, FIG. 4C) | fold increase in CD90+ cells from day 2 ([4]; SF1670 500 nM, after 16 days in culture, FIG. 4D) [fold] | fold increase in CD38− cells from day 2 ([4]; SF1670 500 nM, after 16 days in culture, FIG. 4E) [fold]
1 | O=C1C(=O)c2ccc(O)cc2-c2ccccc21 [Compound 1.013, 3-hydroxyphenanthrene-9,10-dione] | +++ (0.55 ≤ x < 0.9) | positive expansive effect |  |  |  |  |  |  |  |  |  |  |  |  |  | 
2 | CC(C)(C)C(=O)Nc1ccc2c(c1)C(=O)C(=O)c1ccccc1-2 [SF1670] |  |  | at least some expansive effect | very little expansion | reduced expansive effect | increased numbers | increased numbers | increased numbers | increase | increase | increase | increase | greater than 50 fold | greater than 50 fold | ~30 | ~5
